As a reminder, the DC50 is the concentration giving 50% degradation. A low value points to degradation at low concentration.

The structures appear in SMILES notation.

This is an account of results in patent US20240343733A1, “COMPOUNDS FOR TARGETING DEGRADATION OF IRAK4 PROTEINS” (BIOGEN MA INC., priority 2021, published 2024).

One assay concerns the target T1, IRAK4 (Homo sapiens, UniProt Q9NWZ3).
T1 construct: 293Tcells expressing HiBiT-tagged IRAK4 were then added into 384-well plates
T1 sequence (Q9NWZ3 1-460): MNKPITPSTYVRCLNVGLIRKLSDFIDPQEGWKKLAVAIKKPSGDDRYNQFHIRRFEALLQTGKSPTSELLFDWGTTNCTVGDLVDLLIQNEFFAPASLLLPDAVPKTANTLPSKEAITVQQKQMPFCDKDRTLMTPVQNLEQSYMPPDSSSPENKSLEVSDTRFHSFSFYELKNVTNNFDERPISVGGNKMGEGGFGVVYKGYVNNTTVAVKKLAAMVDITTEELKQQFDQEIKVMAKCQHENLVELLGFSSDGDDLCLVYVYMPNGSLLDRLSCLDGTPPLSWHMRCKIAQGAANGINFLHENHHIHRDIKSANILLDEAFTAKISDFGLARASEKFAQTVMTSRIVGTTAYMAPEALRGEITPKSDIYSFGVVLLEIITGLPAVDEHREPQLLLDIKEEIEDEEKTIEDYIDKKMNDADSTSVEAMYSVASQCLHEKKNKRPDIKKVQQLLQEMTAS
As to the kind of experiment: IRAK4 Degradation Assay, HiBiT Method. It counts as cell-based. As to conditions: 293T cells expressing HiBiT-tagged IRAK4, 6 hours. A digest of the protocol:
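293T cells with HiBiT knocked in at the C-terminus of endogenous IRAK4, 10,000 per well, treated 6 h at 37 °C with an 11-point half-log series ([…]), in duplicate. Remaining IRAK4 read by Nano-Glo HiBiT lytic luminescence against DMSO-only and media-only controls.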

For the next assay, the target named is T2, IKZF1 (Homo sapiens, UniProt Q13422).
T2 construct: endogenously expressing IKZF1 with HiBiT fusion tag via CRISPR
T2 sequence (Q96SW2 whole entry partner, the tested form may be a part): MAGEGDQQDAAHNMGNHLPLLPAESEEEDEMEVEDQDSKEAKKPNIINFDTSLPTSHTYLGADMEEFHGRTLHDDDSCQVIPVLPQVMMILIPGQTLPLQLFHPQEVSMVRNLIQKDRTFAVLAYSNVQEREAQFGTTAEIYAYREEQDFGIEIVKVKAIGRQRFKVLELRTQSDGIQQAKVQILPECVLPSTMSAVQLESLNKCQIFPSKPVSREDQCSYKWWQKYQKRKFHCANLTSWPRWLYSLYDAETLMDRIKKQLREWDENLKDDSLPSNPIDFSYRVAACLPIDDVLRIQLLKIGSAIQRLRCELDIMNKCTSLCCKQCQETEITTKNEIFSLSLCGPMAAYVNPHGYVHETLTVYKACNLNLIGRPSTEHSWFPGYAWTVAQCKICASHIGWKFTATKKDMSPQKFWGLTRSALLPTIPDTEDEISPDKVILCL
T2 sequence (Q16531 whole entry partner, the tested form may be a part): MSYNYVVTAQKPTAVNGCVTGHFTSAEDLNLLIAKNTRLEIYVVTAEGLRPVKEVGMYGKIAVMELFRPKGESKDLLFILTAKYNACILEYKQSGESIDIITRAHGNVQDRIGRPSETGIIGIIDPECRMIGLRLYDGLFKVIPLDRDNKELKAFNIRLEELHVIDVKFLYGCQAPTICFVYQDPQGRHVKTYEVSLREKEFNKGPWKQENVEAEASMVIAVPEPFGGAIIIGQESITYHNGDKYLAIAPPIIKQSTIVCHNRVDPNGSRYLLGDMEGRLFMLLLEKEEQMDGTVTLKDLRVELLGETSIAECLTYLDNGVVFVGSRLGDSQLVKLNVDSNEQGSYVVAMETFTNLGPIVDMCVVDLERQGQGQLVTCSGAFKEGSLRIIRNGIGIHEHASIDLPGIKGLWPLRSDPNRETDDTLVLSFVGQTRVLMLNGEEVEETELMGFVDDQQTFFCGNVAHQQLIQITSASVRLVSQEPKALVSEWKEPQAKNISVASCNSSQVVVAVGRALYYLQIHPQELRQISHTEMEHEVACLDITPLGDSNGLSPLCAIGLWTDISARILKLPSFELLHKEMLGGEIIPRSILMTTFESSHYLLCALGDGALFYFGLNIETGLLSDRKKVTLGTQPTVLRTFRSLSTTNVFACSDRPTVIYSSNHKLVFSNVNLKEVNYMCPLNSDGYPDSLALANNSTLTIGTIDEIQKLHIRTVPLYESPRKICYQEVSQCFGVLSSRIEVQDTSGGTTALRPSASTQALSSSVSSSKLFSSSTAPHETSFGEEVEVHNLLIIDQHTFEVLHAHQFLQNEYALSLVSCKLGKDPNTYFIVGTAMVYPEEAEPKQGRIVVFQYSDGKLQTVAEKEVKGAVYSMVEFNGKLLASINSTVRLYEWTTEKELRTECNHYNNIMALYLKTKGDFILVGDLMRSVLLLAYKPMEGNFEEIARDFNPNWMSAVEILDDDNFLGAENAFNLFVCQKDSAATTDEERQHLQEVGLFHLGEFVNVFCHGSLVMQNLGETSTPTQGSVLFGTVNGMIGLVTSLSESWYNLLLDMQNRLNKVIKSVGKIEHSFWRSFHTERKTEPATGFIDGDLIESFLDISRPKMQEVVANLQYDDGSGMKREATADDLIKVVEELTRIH
T2 sequence (Q13422 whole entry, the tested form may be a part): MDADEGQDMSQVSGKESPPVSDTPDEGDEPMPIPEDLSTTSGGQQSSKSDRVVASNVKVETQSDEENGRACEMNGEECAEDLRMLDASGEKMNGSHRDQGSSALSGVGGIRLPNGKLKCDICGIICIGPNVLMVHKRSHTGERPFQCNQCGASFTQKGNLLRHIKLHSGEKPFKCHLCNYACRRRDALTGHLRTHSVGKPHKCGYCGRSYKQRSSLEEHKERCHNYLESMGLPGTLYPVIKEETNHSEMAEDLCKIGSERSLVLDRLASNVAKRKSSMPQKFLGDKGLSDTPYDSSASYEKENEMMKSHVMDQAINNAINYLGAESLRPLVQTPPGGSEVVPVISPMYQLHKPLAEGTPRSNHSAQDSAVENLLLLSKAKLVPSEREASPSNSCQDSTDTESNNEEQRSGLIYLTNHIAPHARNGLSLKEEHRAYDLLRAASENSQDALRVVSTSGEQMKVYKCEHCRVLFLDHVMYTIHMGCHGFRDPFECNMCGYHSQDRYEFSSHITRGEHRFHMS
The assay can be described thus: IKZF1 Degradation Assay, HiBiT Method. It counts as cell-based. The conditions noted are these: NCIH929 cells expressing HiBiT-tagged IKZF1, 6 hours, top concentration 10 μM. As for the experimental part:
Assay 2. IKZF1 Degradation Assay, HiBiT Method
Selected compounds of this disclosure were tested in an IKZF1 degradation assay using the HiBiT Method.
RPMI no-phenol red medium and fetal bovine serum (FBS) were purchased from Gibco (Grand Island, NY, USA). Nano-Glo® HiBiT Lytic Assay System was purchased from Promega (Madison, WI, USA). […] Cell culture flasks and 384-well microplates were acquired from VWR (Radnor, PA, USA).
IKZF1 degradation was determined based on quantification of luminescent signal using Nano-Glo® HiBiT Lytic Assay kit. […] NCIH929 cells expressing HiBiT-tagged IKZF1 were added into 384-well plates in RPMI medium containing 10% FBS and 0.05 mM 2-mercaptoethanol at a cell density of 15000 cells per well. The plates were kept at 37° C. with 5% CO2 for 6 hours. Cells treated in the absence of the test compound were the negative control and wells containing media only were the positive control. After 6-hour incubation, Nano-Glo® HiBiT Lytic Assay reagents were added to the designated wells. Luminescence was acquired on EnVision® Multilabel Reader (PerkinElmer, Santa Clara, CA, USA).
(The HiBiT peptide binds its large partner to form an active luciferase.)

Turning to `CC(C)Oc1cc2nc(C3CCN(CC(=O)N4CCC(c5ccc(C6CCC(=O)NC6=O)cc5)CC4)CC3)cn2cc1C(=O)Nc1cnn2cccnc12` (stereo not shown) [Example 96, 2-[1-[2-[4-[4-(2,6-dioxo-3-piperidyl)phenyl]-1-piperidyl]-2-oxo-ethyl]-4-piperidyl]-7-isopropoxy-N-pyrazolo[1,5-a]pyrimidin-3-yl-imidazo[1,2-a]pyridine-6-carboxamide], the DC50 on IRAK4 was 10 to 100 nM; on IKZF1, over 10000 nM.
In the same order, the values of `CC(C)Oc1cc2nc(C3CCN(C(=O)CC4CCN(c5ncc(C6CCC(=O)NC6=O)cc5F)CC4)CC3)cn2cc1C(=O)Nc1cnn2cccnc12` (stereo not shown) [Example 162, 2-(1-(2-(1-(5-(2,6-dioxopiperidin-3-yl)-3-fluoropyridin-2-yl)piperidin-4-yl)acetyl)piperidin-4-yl)-7-isopropoxy-N-(pyrazolo[1,5-a]pyrimidin-3-yl)imidazo[1,2-a]pyridine-6-carboxamide] are 10 to 100 nM and over 10000 nM.
The like results for `CC(C)Oc1cc2nc(C3CCN(CC(=O)N4CCC(c5ccc(NC6CCC(=O)NC6=O)cc5)CC4)CC3)cn2cc1C(=O)Nc1cccc(C(F)F)n1` (stereo not shown) [Example 105, N-[6-(difluoromethyl)-2-pyridyl]-2-[1-[2-[4-[4-[(2,6-dioxo-3-piperidyl)amino]phenyl]-1-piperidyl]-2-oxo-ethyl]-4-piperidyl]-7-isopropoxy-imidazo[1,2-a]pyridine-6-carboxamide] were, in that order, 10 to 100 nM and over 10000 nM.
In the same order, the values of `CC(C)Oc1cc2nc(C3CCN(CC(=O)N4CCC(c5ccc(NC6CCC(=O)NC6=O)cc5)CC4)CC3)cn2cc1C(=O)Nc1ccn(C)n1` (stereo not shown) [Example 108, 2-[1-[2-[4-[4-[(2,6-dioxo-3-piperidyl)amino]phenyl]-1-piperidyl]-2-oxo-ethyl]-4-piperidyl]-7-isopropoxy-N-(1-methylpyrazol-3-yl)imidazo[1,2-a]pyridine-6-carboxamide] are 10 to 100 nM and over 10000 nM.
As to `CC(C)Oc1cc2nc([C@H]3CC[C@H](CN4CCC(c5ccc6c(c5)n(C)c(=O)n6C5CCC(=O)NC5=O)C(F)(F)C4)CC3)cn2cc1C(=O)Nc1cnn2cccnc12` (stereo partly shown) [Example 49, 2-[4-[[4-[1-(2,6-dioxo-3-piperidyl)-3-methyl-2-oxo-benzimidazol-5-yl]-3,3-difluoro-1-piperidyl]methyl]cyclohexyl]-7-isopropoxy-N-pyrazolo[1,5-a]pyrimidin-3-yl-imidazo[1,2-a]pyridine-6-carboxamide], the results for the DC50 on IRAK4 and at IKZF1 were under 10 nM and over 10000 nM, respectively.
With `CC(C)Oc1cc2nc(C3CCC(CN4CCC(c5ccc(C6CCC(=O)NC6=O)cc5F)CC4)CC3)cn2cc1C(=O)Nc1cnn2cccnc12` (stereo not shown) [Example 47, 2-[4-[[4-[4-(2,6-dioxo-3-piperidyl)-2-fluoro-phenyl]-1-piperidyl]methyl]cyclohexyl]-7-isopropoxy-N-pyrazolo[1,5-a]pyrimidin-3-yl-imidazo[1,2-a]pyridine-6-carboxamide], the figures for the DC50 at IRAK4 and at IKZF1 were under 10 nM and over 10000 nM, respectively.
In the same order, the values of `CC(C)Oc1cc2nc([C@H]3CC[C@H](CN4CCC(c5ccc6c(N7CCC(=O)NC7=O)nn(C)c6c5)CC4)CC3)cn2cc1C(=O)Nc1cccc(C(F)F)n1` [Example 38, N-[6-(difluoromethyl)-2-pyridyl]-2-[4-[[4-[3-(2,4-dioxohexahydropyrimidin-1-yl)-1-methyl-indazol-6-yl]-1-piperidyl]methyl]cyclohexyl]-7-isopropoxy-imidazo[1,2-a]pyridine-6-carboxamide] are under 10 nM and over 10000 nM.
The like results for `CC(C)Oc1cc2nn([C@H]3CC[C@H](CN4CCC(c5ccc6c(c5)n(C)c(=O)n6C5CCC(=O)NC5=O)C(F)(F)C4)CC3)cc2cc1C(=O)Nc1cnn2cccnc12` (stereo partly shown) [Example 123, 2-((1r,4r)-4-((4-(1-(2,6-dioxopiperidin-3-yl)-3-methyl-2-oxo-2,3-dihydro-1H-benzo[d]imidazol-5-yl)-3,3-difluoropiperidin-1-yl)methyl)cyclohexyl)-6-isopropoxy-N-(pyrazolo[1,5-a]pyrimidin-3-yl)-2H-indazole-5-carboxamide] were, in that order, under 10 nM and over 10000 nM.
